One experiment deals with recombinant human HDAC1 (Homo sapiens (Human), UniProt Q13547). Put plainly: Enzymatic screening, HDAC1 inhibition (fluorogenic FdL_G substrate). It is filed as biochemical. The gist of the method: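 Recombinant human HDAC1 inhibition was measured fluorometrically using the FLUOR DE LYS-Green (FdL_G) substrate. Compounds at 8 doses (1% DMSO final) in Tris-HCl pH 8 buffer with NaCl, Tween-20 and glycerol were preincubated in triplicate with enzyme and 1 mg/mL BSA, then given substrate. Developer I plus 2 μM TSA was added, and fluorescence read after 25 minutes in the dark.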

For another experiment, the target named is recombinant human HDAC6 (Homo sapiens (Human), UniProt Q9UBN7). Put plainly: Enzymatic screening, HDAC6 inhibition (fluorogenic FdL_G substrate). It is filed as biochemical. The gist of the method: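 Enzyme was preincubated with compound (8 doses, triplicate, 1% DMSO) in 25 mM Tris-HCl pH 8, 130 mM NaCl, 0.05% Tween-20, 10% glycerol, with BSA. A FLUOR DE LYS-Green substrate was then added, and fluorescence was read after developer plus 2 μM TSA.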

A value given as a limit tells only on which side of the number the result lay.

Sequence of recombinant human HDAC1 (Q13547 whole entry): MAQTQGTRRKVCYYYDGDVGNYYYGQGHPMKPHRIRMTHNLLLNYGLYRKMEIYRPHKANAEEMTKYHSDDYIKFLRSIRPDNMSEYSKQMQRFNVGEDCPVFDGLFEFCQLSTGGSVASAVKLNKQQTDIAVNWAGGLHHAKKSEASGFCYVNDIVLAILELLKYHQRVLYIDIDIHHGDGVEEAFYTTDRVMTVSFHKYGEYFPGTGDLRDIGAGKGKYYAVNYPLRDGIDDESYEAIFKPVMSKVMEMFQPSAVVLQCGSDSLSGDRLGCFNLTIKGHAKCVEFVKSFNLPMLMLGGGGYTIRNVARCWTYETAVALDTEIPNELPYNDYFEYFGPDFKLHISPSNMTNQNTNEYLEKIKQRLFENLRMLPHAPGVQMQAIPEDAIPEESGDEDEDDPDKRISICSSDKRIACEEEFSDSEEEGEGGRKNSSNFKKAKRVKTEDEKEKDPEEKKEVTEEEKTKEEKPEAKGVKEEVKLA
Sequence of recombinant human HDAC6 (Q9UBN7 whole entry): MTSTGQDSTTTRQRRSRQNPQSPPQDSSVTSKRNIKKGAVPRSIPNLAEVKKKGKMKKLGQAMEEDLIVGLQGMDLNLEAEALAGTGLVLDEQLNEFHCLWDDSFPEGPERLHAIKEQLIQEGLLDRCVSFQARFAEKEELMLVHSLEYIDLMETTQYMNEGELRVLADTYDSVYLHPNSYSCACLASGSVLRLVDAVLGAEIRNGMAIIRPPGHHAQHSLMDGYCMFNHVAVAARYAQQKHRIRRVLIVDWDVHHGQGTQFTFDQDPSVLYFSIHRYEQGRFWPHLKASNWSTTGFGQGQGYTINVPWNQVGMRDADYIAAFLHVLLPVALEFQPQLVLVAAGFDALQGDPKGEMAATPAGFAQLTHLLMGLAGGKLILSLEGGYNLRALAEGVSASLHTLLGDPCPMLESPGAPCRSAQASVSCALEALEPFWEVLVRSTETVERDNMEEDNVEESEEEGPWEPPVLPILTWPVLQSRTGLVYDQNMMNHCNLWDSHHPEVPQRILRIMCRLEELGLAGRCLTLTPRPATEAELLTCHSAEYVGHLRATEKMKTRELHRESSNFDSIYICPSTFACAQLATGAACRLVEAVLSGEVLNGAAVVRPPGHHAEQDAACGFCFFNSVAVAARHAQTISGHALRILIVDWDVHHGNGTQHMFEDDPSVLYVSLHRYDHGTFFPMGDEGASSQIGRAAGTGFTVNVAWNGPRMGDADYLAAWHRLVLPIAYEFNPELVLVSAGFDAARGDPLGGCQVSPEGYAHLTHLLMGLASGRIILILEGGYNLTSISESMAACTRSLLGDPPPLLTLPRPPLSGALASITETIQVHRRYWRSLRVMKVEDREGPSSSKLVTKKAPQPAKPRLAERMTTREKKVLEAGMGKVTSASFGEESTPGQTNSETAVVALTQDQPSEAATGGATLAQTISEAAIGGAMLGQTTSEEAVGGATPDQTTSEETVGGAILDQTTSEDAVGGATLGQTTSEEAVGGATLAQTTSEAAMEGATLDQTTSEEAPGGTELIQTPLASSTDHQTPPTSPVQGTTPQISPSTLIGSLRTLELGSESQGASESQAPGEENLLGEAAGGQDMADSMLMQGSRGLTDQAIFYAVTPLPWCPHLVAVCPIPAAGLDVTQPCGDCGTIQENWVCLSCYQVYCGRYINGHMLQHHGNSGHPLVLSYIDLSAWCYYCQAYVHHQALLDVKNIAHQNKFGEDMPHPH

`FCc1nnc(-c2ccc(Cc3nc(-c4ccc(NC5=NCCN5)cc4)no3)cc2)o1` [compound 380]: the IC50 – broadly, the concentration that inhibits the measured activity by half – is over 1e+06 nM on recombinant human HDAC1 and 19 nM at recombinant human HDAC6.
In the same order, the values of `[2H]C([2H])(c1cc(F)c(-c2nnc(C(F)F)o2)cc1F)n1cc(-c2ccc(N)nc2)nn1` [compound 381, 5-[1-[dideuterio-[4-[5-(difluoromethyl)-1,3,4-oxadiazol-2-yl]-2,5-difluorophenyl]methyl]triazol-4-yl]pyridin-2-amine] are over 1e+06 nM and 28 nM.
The like results for `[2H]C([2H])(c1ccc(-c2nnc(C(F)F)o2)cc1F)n1cc(-c2ccc3nc(N)sc3c2)nn1` [compound 382, 6-[1-[dideuterio-[4-[5-(difluoromethyl)-1,3,4-oxadiazol-2-yl]-2-fluorophenyl]methyl]triazol-4-yl]-1,3-benzothiazol-2-amine] were, in that order, over 1e+06 nM and 18 nM.
The like results for `Fc1cc(Cc2nc(-c3ccc(NC4=NCCN4)cc3)no2)ccc1-c1nnc(C(F)F)o1` [compound 383, N-(4-(5-(4-(5-(difluoromethyl)-1,3,4-oxadiazol-2-yl)-3-fluorobenzyl)-1,2,4-oxadiazol-3-yl)phenyl)-4,5-dihydro-1H-imidazol-2-amine] were, in that order, over 1e+06 nM and 13 nM.
Turning to `[2H]C([2H])(c1ccc(-c2nnc(C(F)F)o2)c(F)c1F)n1cc(-c2ccc(N)nc2)nn1` [compound 385, 5-[1-[dideuterio-[4-[5-(difluoromethyl)-1,3,4-oxadiazol-2-yl]-2,3-difluorophenyl]methyl]triazol-4-yl]pyridin-2-amine], the IC50 at recombinant human HDAC1 was determined as 1e+06 nM; on recombinant human HDAC6, 30 nM.
The like results for `Nc1ncnc2sc(-c3cn(Cc4c(F)cc(-c5nnc(C(F)F)o5)cc4F)nn3)cc12` [compound 386, 6-(1-(4-(5-(difluoromethyl)-1,3,4-oxadiazol-2-yl)-2,6-difluorobenzyl)-1H-1,2,3-triazol-4-yl)thieno[2,3-d]pyrimidin-4-amine] were, in that order, 1e+06 nM and 40 nM.
With `Nc1ncnc2cc(-c3cn(Cc4ccc(-c5nnc(C(F)F)o5)cc4F)nn3)ccc12` [compound 387, 7-[1-({4-[5-(difluoromethyl)-1,3,4-oxadiazol-2-yl]-2-fluorophenyl}methyl)-1H-1,2,3-triazol-4-yl]quinazolin-4-amine], the values for the half-inhibitory concentration (IC50) at recombinant human HDAC1 and on recombinant human HDAC6 were 1e+06 nM and 12 nM, respectively.
As for `CNc1ccc2cc(-c3nnn(Cc4c(F)cc(-c5nnc(C(F)F)o5)cc4F)n3)ccc2n1` [compound 388, 6-(2-(4-(5-(difluoromethyl)-1,3,4-oxadiazol-2-yl)-2,6-difluorobenzyl)-2H-tetrazol-5-yl)-N-methylquinolin-2-amine], the IC50 was 1e+06 nM on recombinant human HDAC1 and 125 nM on recombinant human HDAC6.
In the same order, the values of `CNc1ncc2cc(-c3cn(Cc4ccc(-c5nnc(C(F)F)o5)c(F)c4F)nn3)ccc2n1` [compound 389, 6-[1-({4-[5-(difluoromethyl)-1,3,4-oxadiazol-2-yl]-2,3-difluorophenyl}methyl)-1H-1,2,3-triazol-4-yl]-N-methylquinazolin-2-amine] are 1e+06 nM and 192 nM.
In the same order, the values of `CNc1ncc2cc(-c3cn(Cc4ccc(-c5nnc(C(F)F)o5)cc4F)nn3)ccc2n1` [compound 390, 6-[1-({4-[5-(difluoromethyl)-1,3,4-oxadiazol-2-yl]-2-fluorophenyl}methyl)-1H-1,2,3-triazol-4-yl]-N-methylquinazolin-2-amine] are 1e+06 nM and 116 nM.
The like results for `CNc1ncc2cc(-c3cn(Cc4cc(F)c(-c5nnc(C(F)F)o5)cc4F)nn3)ccc2n1` [compound 391, 6-[1-({4-[5-(difluoromethyl)-1,3,4-oxadiazol-2-yl]-2,5-difluorophenyl}methyl)-1H-1,2,3-triazol-4-yl]-N-methylquinazolin-2-amine] were, in that order, 1e+06 nM and 217 nM.
On to `CNc1ncc2cc(-c3cn(Cc4c(F)cc(-c5nnc(C(F)F)o5)cc4F)nn3)ccc2n1` [compound 392, 6-[1-({4-[5-(difluoromethyl)-1,3,4-oxadiazol-2-yl]-2,6-difluorophenyl}methyl)-1H-1,2,3-triazol-4-yl]-N-methylquinazolin-2-amine], for which the IC50 on recombinant human HDAC1 was found to be 1e+06 nM; at recombinant human HDAC6 it was 102 nM.
As to `CNc1ncc2cc(-c3cn(Cc4ccc(-c5nnc(C(F)F)o5)c(F)c4)nn3)ccc2n1` [compound 393, 6-[1-({4-[5-(difluoromethyl)-1,3,4-oxadiazol-2-yl]-3-fluorophenyl}methyl)-1H-1,2,3-triazol-4-yl]-N-methylquinazolin-2-amine], the IC50 is 1e+06 nM at recombinant human HDAC1 and 497 nM on recombinant human HDAC6.
`CCNc1ncc2cc(-c3cn(Cc4cc(F)c(-c5nnc(C(F)F)o5)cc4F)nn3)ccc2n1` [compound 394, 6-[1-({4-[5-(difluoromethyl)-1,3,4-oxadiazol-2-yl]-2,5-difluorophenyl}methyl)-1H-1,2,3-triazol-4-yl]-N-ethylquinazolin-2-amine]: the results for the half-maximal inhibitory concentration (IC50) at recombinant human HDAC1 and at recombinant human HDAC6 were 1e+06 nM and 264 nM, respectively.
On to `CCNc1ncc2cc(-c3cn(Cc4ccc(-c5nnc(C(F)F)o5)c(F)c4)nn3)ccc2n1` [compound 395, 6-(1-(4-(5-(difluoromethyl)-1,3,4-oxadiazol-2-yl)-3-fluorobenzyl)-1H-1,2,3-triazol-4-yl)-N-ethylquinazolin-2-amine], for which the IC50 on recombinant human HDAC1 amounted to 1e+06 nM; on recombinant human HDAC6, 857 nM.
In the same order, the values of `Nc1nccc2cc(-c3nnn(Cc4cc(F)c(-c5nnc(C(F)F)o5)cc4F)n3)ccc12` [compound 396, 6-[2-[[4-[5-(difluoromethyl)-1,3,4-oxadiazol-2-yl]-2,5-difluorophenyl]methyl]tetrazol-5-yl]isoquinolin-1-amine] are 1e+06 nM and 60 nM.
In the same order, the values of `Nc1nccc2cc(-c3nnn(Cc4ccc(-c5nnc(C(F)F)o5)cc4F)n3)ccc12` [compound 397, 6-[2-[[4-[5-(difluoromethyl)-1,3,4-oxadiazol-2-yl]-2-fluorophenyl]methyl]tetrazol-5-yl]isoquinolin-1-amine] are 1e+06 nM and 57 nM.
As to `CNc1ccc2cc(-c3nnn(Cc4ccc(-c5nnc(C(F)F)o5)cc4F)n3)ccc2n1` [compound 401, 6-[2-[[4-[5-(difluoromethyl)-1,3,4-oxadiazol-2-yl]-2-fluorophenyl]methyl]tetrazol-5-yl]-N-methylquinolin-2-amine], the IC50 was determined as 1e+06 nM on recombinant human HDAC1 and 144 nM at recombinant human HDAC6.
In the same order, the values of `CNc1ccc2cc(-c3nnn(Cc4ccc(-c5nnc(C(F)F)o5)c(F)c4)n3)ccc2n1` [compound 403, 6-[2-[[4-[5-(difluoromethyl)-1,3,4-oxadiazol-2-yl]-3-fluorophenyl]methyl]tetrazol-5-yl]-N-methylquinolin-2-amine] are 1e+06 nM and 117 nM.
For the molecule `Nc1cc2cc(-c3cn(Cc4ccc(-c5nnc(C(F)F)o5)cc4Cl)nn3)ccc2cn1` [compound 404, 6-(1-(2-chloro-4-(5-(difluoromethyl)-1,3,4-oxadiazol-2-yl)benzyl)-1H-1,2,3-triazol-4-yl)isoquinolin-3-amine], the IC50 was 1e+06 nM at recombinant human HDAC1 and 178 nM at recombinant human HDAC6.
In the same order, the values of `Nc1cc2cc(-c3cn(Cc4ccc(-c5nnc(C(F)F)o5)cc4F)nn3)ccc2cn1` [compound 405, 6-[1-({4-[5-(difluoromethyl)-1,3,4-oxadiazol-2-yl]-2-fluorophenyl}methyl)-1H-1,2,3-triazol-4-yl]isoquinolin-3-amine] are 1e+06 nM and 59 nM.
In the same order, the values of `Nc1cc2cc(-c3cn(Cc4cc(F)c(-c5nnc(C(F)F)o5)cc4F)nn3)ccc2cn1` [compound 406, 6-[1-({4-[5-(difluoromethyl)-1,3,4-oxadiazol-2-yl]-2,5-difluorophenyl}methyl)-1H-1,2,3-triazol-4-yl]isoquinolin-3-amine] are 1e+06 nM and 85 nM.
In the same order, the values of `CNc1ccc2cc(-c3nnn(Cc4ccc(-c5nnc(C(F)F)o5)c(F)c4F)n3)ccc2n1` [compound 407, 6-(2-(4-(5-(difluoromethyl)-1,3,4-oxadiazol-2-yl)-2,3-difluorobenzyl)-2H-tetrazol-5-yl)-N-methylquinolin-2-amine] are 1e+06 nM and 136 nM.
With `Nc1ccc(-c2noc(Cc3ccc(-c4nnc(C(F)F)o4)c(F)c3)n2)cc1` [compound 408, 4-(5-(4-(5-(difluoromethyl)-1,3,4-oxadiazol-2-yl)-3-fluorobenzyl)-1,2,4-oxadiazol-3-yl)aniline], the IC50 at recombinant human HDAC1 was over 1e+06 nM; on recombinant human HDAC6 it was 80 nM.
In the same order, the values of `CCNc1ccc2cc(-c3nnn(Cc4cc(F)c(-c5nnc(C(F)F)o5)cc4F)n3)ccc2n1` [compound 409, 6-(2-(4-(5-(difluoromethyl)-1,3,4-oxadiazol-2-yl)-2,5-difluorobenzyl)-2H-tetrazol-5-yl)-N-ethylquinolin-2-amine] are 1e+06 nM and 420 nM.
In the same order, the values of `CCNc1ccc2cc(-c3nnn(Cc4ccc(-c5nnc(C(F)F)o5)c(F)c4)n3)ccc2n1` [compound 410, 6-(2-(4-(5-(difluoromethyl)-1,3,4-oxadiazol-2-yl)-3-fluorobenzyl)-2H-tetrazol-5-yl)-N-ethylquinolin-2-amine] are 1e+06 nM and 348 nM.
In the same order, the values of `Cn1c(N)nc2cc(-n3cc(Cc4ccc(-c5nnc(C(F)F)o5)cc4)nn3)ccc21` [compound 414, 5-[4-({4-[5-(difluoromethyl)-1,3,4-oxadiazol-2-yl]phenyl}methyl)-1H-1,2,3-triazol-1-yl]-1-methyl-1H-1,3-benzodiazol-2-amine] are 1e+06 nM and 461 nM.

The values are drawn from US20230286970A1, “NOVEL OXADIAZOLE-BASED SELECTIVE HDAC6 INHIBITORS” (ITALFARMACO S.P.A., priority 2020, published 2023).
